Data as given in patent publication US20130266636A1, “METHODS FOR BLOCKING CELL PROLIFERATION AND TREATING DISEASES AND CONDITIONS RESPONSIVE TO CELL GROWTH INHIBITION” (THE REGENTS OF THE UNIVERSITY OF CALIFORNIA, priority 2010, published 2013).

Legend:
FAK or Src = settings: cited from earlier work
OVCAR-5 = assay: NCI-60 panel growth inhibition; assay type: cell-based; settings: Homo sapiens, Ovarian Cancer, mutated RAS Yes, mutated BRAF No
Excerpt: (§1) Table 1 summarizes KG5's effect in 60 NCI cancer cell lines: the NCI-60 panel showing the half maximal growth inhibitory concentration of KG5 and the RAS and BRAF status in 60 human cancer cell lines.

HCT-15 = assay: NCI-60 panel growth inhibition; assay type: cell-based; settings: Homo sapiens, Colon Cancer, mutated RAS Yes, mutated BRAF Yes
Excerpt: as §1

SR = assay: NCI-60 panel growth inhibition; assay type: cell-based; settings: Homo sapiens, Leukemia, mutated RAS No, mutated BRAF No
Excerpt: as §1

IGROV1 = assay: NCI-60 panel growth inhibition; assay type: cell-based; settings: Homo sapiens, IGROV-1; Ovarian Cancer; mutated RAS No; mutated BRAF No
Excerpt: as §1

HL-60(TB) = assay: NCI-60 panel growth inhibition; assay type: cell-based; settings: Homo sapiens, Leukemia, mutated RAS Yes, mutated BRAF No
Excerpt: as §1

PC-3 = assay: NCI-60 panel growth inhibition; assay type: cell-based; settings: Homo sapiens, Prostate Cancer, mutated RAS No, mutated BRAF No
Excerpt: as §1

LOX IMVI = assay: NCI-60 panel growth inhibition; assay type: cell-based; settings: Homo sapiens, Melanoma, mutated RAS No, mutated BRAF Yes
Excerpt: as §1

OVCAR-8 = assay: NCI-60 panel growth inhibition; assay type: cell-based; settings: Homo sapiens, Ovarian Cancer, mutated RAS No, mutated BRAF No
Excerpt: as §1

M14 = assay: NCI-60 panel growth inhibition; assay type: cell-based; settings: Homo sapiens, Melanoma, mutated RAS No, mutated BRAF Yes
Excerpt: as §1

786-0 = assay: NCI-60 panel growth inhibition; assay type: cell-based; settings: Homo sapiens, Renal Cancer, mutated RAS No, mutated BRAF No
Excerpt: as §1

SNB-75 = assay: NCI-60 panel growth inhibition; assay type: cell-based; settings: Homo sapiens, CNS Cancer, mutated RAS No, mutated BRAF No
Excerpt: as §1

SK-MEL-2 = assay: NCI-60 panel growth inhibition; assay type: cell-based; settings: Homo sapiens, Melanoma, mutated RAS Yes, mutated BRAF No
Excerpt: as §1

SF-539 = assay: NCI-60 panel growth inhibition; assay type: cell-based; settings: Homo sapiens, CNS Cancer, mutated RAS No, mutated BRAF No
Excerpt: as §1

NCI-H226 = assay: NCI-60 panel growth inhibition; assay type: cell-based; settings: Homo sapiens, NSC Lung Cancer, mutated RAS No, mutated BRAF No
Excerpt: as §1

CAKI-1 = assay: NCI-60 panel growth inhibition; assay type: cell-based; settings: Homo sapiens, Renal Cancer, mutated RAS No, mutated BRAF No
Excerpt: as §1

DU-145 = assay: NCI-60 panel growth inhibition; assay type: cell-based; settings: Homo sapiens, Prostate Cancer, mutated RAS No, mutated BRAF No
Excerpt: as §1

OVCAR-3 = assay: NCI-60 panel growth inhibition; assay type: cell-based; settings: Homo sapiens, Ovarian Cancer, mutated RAS No, mutated BRAF No
Excerpt: as §1

KM12 = assay: NCI-60 panel growth inhibition; assay type: cell-based; settings: Homo sapiens, Colon Cancer, mutated RAS No, mutated BRAF No
Excerpt: as §1

HCT-116 cells = assay: G2/M arrest in HCT-116 cells expressing WT or S338D CRAF; assay type: cell-based, human; settings: 1 μM KG5, 18 hours
[1] = system: MDA-MB-231 human breast carcinoma cells; assay: Cells in pro-metaphase in orthotopic breast tumor xenografts; assay type: in vivo, mice; settings: systemic KG5 50 mg/Kg, after three days
Excerpt: FIG. 34. CRAF is required for mitotic progression: (a) Cell cycle analysis of WT and CRAF−/− MEFs. Left graph, Cells in G2/M were quantified by flow cytometry. Right graph, Cells at pro-metaphase were quantified using confocal microscopy. Error bars represent s.d. (n=4); * two tailed p value=0.0079 (left graph) and p=0.0055 (right graph) using a Mann Whitney U test. (b) WT and CRAF−/− MEFs were synchronized at pro-metaphase with a thymidine-nocodazole block as described in these Methods, and subsequently released from the blockade and allowed to progress through mitosis. Quantification of cells in G2/M was performed by flow cytometry. Error bars represent s.d. (n=3). (c) Confocal microscopy images of WT and CRAF−/− cells progressing through mitosis at 0, 60 and 360 minutes after release from pro-metaphase blockade. Cells were stained for α-tubulin (in red) and DNA (TOPRO-3™ in blue). Scale bar, 10 μm. […] Cell cycle analysis and quantification of cells in G2/M was performed by flow cytometry. […] (e) Immunohistochemical staining of phospho-5338 CRAF and phospho-histone H3 (mitotic marker) in orthotopic breast and tumor xenografts untreated or treated systemically with KG5 (50 mg/Kg for 3 days Scale bar, 50 μm. […]. Circles indicate cells in pro-metaphase. Right, Quantification of cells in pro-metaphase. Error bars represent s.d. (n=12); * two tailed p value=0.006 using Student T test. […]

PKC = settings: cited from earlier work

CSc1nc(N)cc(Oc2ccc(-c3nnc(Nc4cccc(C(F)(F)F)c4)[nH]3)cc2)n1 [KG5]
integrin-mediated signaling to FAK or Src (FAK or Src): no effect
GI50 (OVCAR-5): 1550 nM
GI50 (HCT-15): 490 nM
GI50 (SR): 398 nM
GI50 (IGROV1): 447 nM
GI50 (HL-60(TB)): 407 nM
GI50 (PC-3): 282 nM
GI50 (LOX IMVI): 851 nM
GI50 (OVCAR-8): 479 nM
GI50 (M14): 347 nM
GI50 (786-0): 490 nM
GI50 (SNB-75): 245 nM
GI50 (SK-MEL-2): 589 nM
GI50 (SF-539): 347 nM
GI50 (NCI-H226): 1780 nM
GI50 (CAKI-1): 417 nM
GI50 (DU-145): 457 nM
GI50 (OVCAR-3): 251 nM
GI50 (KM12): 468 nM
G2/M arrest in cells expressing phospho-mimetic S338D CRAF (HCT-116 cells): showed resistance to KG5
cells at pro-metaphase in orthotopic breast tumor tissues [1]: accumulation of cells at pro-metaphase
PKC (PKC): no impact
